Earlier results, collected in patent US12472264B2, “Cell-penetrating peptides” (Oxford University Innovation Limited, priority 2018, dated 2025).

Test system: exon 51
Settings: background statement on FDA accelerated approval, September 2016

For eteplirsen, the “levels of dystrophin restoration” value is given as “approximately 1 % of normal dystrophin levels”.
